Values joined by “and” are separate entries in the source; they are usually repeats but may differ in a detail not shown here. Equal values may be shown once. “Also recorded” adds a separate entry of the source.
Experiments:
Type in all cases: in vivo, rat
[1] = tested on: angiotensin II infused rats; assay: Assay A angiotensin II infusion model: heart histology (coronary vascular inflammation, myocardial injury); conditions: for Vascular inflammation and myocardial injury in the heart: angiotensin II infused rats, aldosterone given to adrenalectomized rats
Collagen I = assay: Assay C: Collagen I mRNA in left ventricle (TaqMan); conditions: for Collagen type-I message: 30 days, compared to vehicle+salt controls; for Collagen-I mRNA: individual rats
Experimental: (§1) The procedure of Assay B was expanded upon in a further study. […] Myocardial tissue from animals in each treatment group was examined after 7, 14, or 30 days of treatment.
(§2) Potassium chloride supplementation was added to the saline solution in order to prevent the potential hypokalemia associated with aldosterone excess.
(§3) At the time of the surgery, an Alzet 2002 osmotic minipump (Alza Corp., Palo Alto, Calif.) containing either vehicle (9% ethanol/87% propylene glycol/4% dH2O) or 1.0 mg/mL d-aldosterone (Sigma Chemical, St. Louis, Mo.) was inserted subcutaneously at the nape of the neck. Aldosterone was administered at a dose of 0.75 g/hour. […] Animals were sacrificed from each group (n=8-13) after 7, 14, or 30 days of treatment.
Following exsanguination, hearts and kidneys were isolated, removed, rinsed in cold phosphate-buffered saline, and blotted dry. Kidneys were immediately bifurcated through the long axis with a razor blade and placed in 10% neutral buffered formalin (NBF, Richard-Allen Scientific, Kalamazoo, Mich.). For the hearts, the right ventricle (RV) was cut away from the left ventricle (LV), both ventricles were weighed using a Mettler AE163 balance (Mettler-Toledo, Inc., Hightstown, N.J.), and the RV was placed in 10% NBF. A 2 mm coronal slab of the LV apex was removed and frozen with dry ice/isopentane for analysis of gene expression and the remaining portion of the LV was placed in 10% NBF for fixation. Final wet trimming was completed after 3-4 days fixation where a second 2 mm coronal slab was removed for hydroxyproline analysis and a third 2 mm slab was removed from the equatorial region for histology.
(§4) The fluorogenic 5′-nuclease assay (TaqMan PCR) using Applied Biosystems' 7700 Sequence Detection System (Applied Biosystems, Foster City, Calif.) allowed for real time detection/quantitation of a specific gene by monitoring the increase in fluorescence of a gene-specific, dye-labeled oligonucleotide probe. Probes for target and reference genes were labeled at the 5′-end with a 6-carboxyfluorescein (6FAM) reporter dye and at the 3′-end with a 6-carboxy-N,N,N′,N′-tetramethylrhodamine (TAMRA) quencher dye. When the probe was annealed to the target gene, fluorescence of 6FAM was prevented by the close proximity of TAMRA. The exonuclease activity of Taq polymerase released the dyes from the oligonucleotide probe by displacing the probe from the target sequence resulting in fluorescence excitation in direct proportion to the amount of target message present. Data analysis was performed using the Sequence Detection System software from Applied Biosystems.
Primers and probes were designed using Oligo Primer Analysis Software, Version 5.0 (National Biosciences Inc. (NBI)-Wojciech Rychlik, Cascade, Colo.). Primers were synthesized by Life Technologies (Grand Island, N.Y.) and probes were synthesized by Applied Biosystems. Primer/probe sets were designed from known sequences of rat genes to be analyzed. All target gene values were normalized to a reference gene, constitutively expressed cyclophilin. Primer/probe sets sequences can be found in Table 8
RNA was extracted from frozen (−70° C.) left ventricle (LV) tissue (approximately 10-20 mg) using 1.5 mL RNA-STAT 60 according to manufacturer's instructions (Leedo Medical Laboratories, Inc., Houston, Tex.). Briefly, tissues were homogenized using a tissue homogenizer equipped with a 5 mm probe (Ultra-Turrax T8 Homogenizer, IKA Works, Inc. Wilmington, N.C.). Following homogenization, an equal volume of molecular grade chloroform (Sigma Chemical Co., St. Louis, Mo.) was incubated with periodic mixing for 10 min at room temperature. Samples were centrifuged at 12,000 g for 10 min and RNA was precipitated from the top layer by adding an equal volume of molecular grade isopropanol (Sigma Chemical Co.) followed by an overnight incubation at −80° C.

osteopontin = assay: Assay C: osteopontin relative mRNA expression in heart (TaqMan); conditions: for Osteopontin, Mean / Osteopontin: mRNA; for Osteopontin, Mean: group mean; for Osteopontin: individual rats
Experimental: as §1, §2, §3, §4
(§5) All primers and probes were designed using Primer Express software supplied with the 7700 Sequence Detection System and synthesized by Applied Biosystems. Standard curves using 5-fold dilutions of total RNA (from 200 ng to 320 pg) were performed to determine the efficiency of each primer/probe set in the TaqMan reaction prior to the analysis of the experimental samples. Primer/probe sets were designed from known sequences of rat genes to be analyzed. All target gene values were normalized to a reference gene, constitutively expressed cyclophilin. Primer/probe set sequences can be found in Table 8.
(§6) RNA was extracted from frozen (−80° C.) rat heart tissue using the Totally RNA Isolation Kit (Ambion, Inc., Austin, Tex.). Tissue was crushed using a stainless steel mortar and pestle, which had been chilled to −80° C. and transferred to a dounce homogenizer (Kontes, Vineland, N.J.) containing 3-10 mL cold denaturation buffer. Tissue was homogenized and transferred to a sterile, 15 mL polypropylene centrifuge tube. An equal volume of phenol:chloroform:isoamyl alcohol (25:24:1) was added, samples were shaken vigorously for 1 min, and incubated on ice for at least 15 min. Samples were centrifuged for 30 min at 10,000 g. The aqueous phase was removed, 1/10 volume of a sodium acetate solution (3.0 M NaOAc pH 4.5) was added, samples were shaken or inverted for 10 seconds, and acid-phenol (premixed with isoamyl alcohol):chloroform (5:1, Ambion, Inc.) was added at an volume equivalent to the starting sample volume. Samples were shaken vigorously for 1 min, followed by a 15-min incubation on ice, and centrifuged for 30 min at 10,000 g. The aqueous phase removed and placed in a clean polypropylene tube. An equal volume of isopropanol (Sigma, St. Louis, Mo.) was added and the samples were mixed and incubated overnight at −20° C. The samples were centrifuged for 30 min at 10,000 g, the supernatant was removed and the RNA pellet was resuspended in DNAse/RNAse-free water. Samples were frozen at −80° C. for at least 2 hours, thawed on wet ice, and diluted for quantitation.

[2] = tested on: Intercellular Adhesion Molecule-1 (ICAM-1); assay: Assay C: ICAM-1 relative mRNA expression in heart (TaqMan); conditions: for ICAM, Mean / ICAM: mRNA; for ICAM, Mean: group mean; for ICAM: individual rats; for ICAM-1 mRNA expression in myocardium: time course 7, 14, 30 days, eplerenone 100 mg/kg/day
Experimental: as §1, §2, §3, §4, §5, §6

[3] = 7 days of treatment, listed as Aldosterone + salt
[4] = 7 days of treatment, listed as Eplerenone + aldosterone + salt
[5] = 14 days of treatment, listed as Eplerenone + aldosterone + salt
[6] = 30 days of treatment, listed as Eplerenone + aldosterone + salt

## C[C@]12CCC(=O)C=C1CC[C@@H]1[C@@H]2[C@@H](O)C[C@]2(C=O)[C@@H](C(=O)CO)CC[C@@H]12 [aldosterone]
[1]
  Vascular inflammation and myocardial injury in the heart: restored the severe coronary and myocardial inflammation and injury
Collagen I
  Collagen type-I message: modest increase
Collagen I; Table 9.14, 7-day protocol, listed as Aldosterone + salt
  Collagen-I mRNA: 0.84 AU and 1.40 AU
Collagen I; 14 days of treatment, relative to cyclophilin expression, listed as Aldosterone + salt
  Collagen-I mRNA: 0.25 AU and 1.00 AU and 1.20 AU and 1.70 AU and 0.43 AU
Collagen I; 30 days of treatment, relative to cyclophilin expression, listed as Aldosterone + salt
  Collagen-I mRNA: 2.20 AU
Collagen I; mean ± SEM after 14 days of treatment, relative to cyclophilin expression
  Collagen-I (collagen type I mRNA): 1.33 ± 0.24 AU
osteopontin; 14 days of treatment
  Osteopontin, Mean: 6.56 AU
osteopontin; 30 days of treatment
  Osteopontin, Mean: 13.27 AU
osteopontin; [3]
  Osteopontin: 0.84 AU and 0.95 AU and 1.08 AU
[2]; 14 days of treatment
  ICAM, Mean: 1.47 AU
[2]; 30 days of treatment
  ICAM, Mean: 1.81 AU
[2]; [3]
  ICAM: 1.39 AU and 0.80 AU and 1.68 AU
[2]; 14 days of treatment, listed as Aldosterone + salt
  ICAM: 1.16 AU
[2]; 30 days of treatment, listed as Aldosterone + salt
  ICAM: 1.50 AU
[2]
  ICAM-1 mRNA expression in myocardium: upregulated at day 14 and 30

## COC(=O)[C@@H]1CC2=CC(=O)CC[C@]2(C)[C@@]23O[C@@H]2C[C@@]2(C)[C@@H](CC[C@@]24CCC(=O)O4)[C@H]13 [eplerenone, Pregn-4-ene-7,21-dicarboxylic acid, 9,11-epoxy-17-hydroxy-3-oxo-, γ-lactone, methyl ester, (7α, 11α, 17β) -]
[1]
  Vascular inflammation and myocardial injury in the heart: prevention by eplerenone (epoxymexrenone) of vascular inflammation in the heart
[1]; out of ten animals per group, angiotensin II/salt, 4 weeks, eplerenone 100 mpk
  Animals with vascular inflammatory lesions in the coronary arteries: only one of the ten
Collagen I
  Collagen type-I message: modest increase
Collagen I; group mean, 30 days of treatment
  Collagen-I mRNA, Mean: 2.53 AU
Collagen I; 14 days of treatment, relative to cyclophilin expression, listed as Eplerenone + aldosterone + salt
  Collagen-I mRNA: 0.90 AU and 1.14 AU and 0.50 AU
Collagen I; 30 days of treatment, relative to cyclophilin expression, listed as Eplerenone + aldosterone + salt
  Collagen-I mRNA: 2.98 AU and 2.90 AU
Collagen I; mean ± SEM after 7 days of treatment, relative to cyclophilin expression
  Collagen-I (collagen type I mRNA): 0.85 ± 0.15 AU
osteopontin; 7 days of treatment
  Osteopontin, Mean: 0.75 AU
osteopontin; 14 days of treatment
  Osteopontin, Mean: 2.94 AU
osteopontin; 30 days of treatment
  Osteopontin, Mean: 2.59 AU
osteopontin; [4]
  Osteopontin: 0.54 AU and 0.52 AU and 0.27 AU and 0.60 AU and 0.96 AU and 0.75 AU
osteopontin; [5]
  Osteopontin: 1.00 AU and 0.77 AU and 1.59 AU and 0.72 AU and 0.99 AU
osteopontin; [6]
  Osteopontin: 1.28 AU
osteopontin; time course 7, 14, 30 days, eplerenone 100 mg/kg/day
  Osteopontin mRNA expression in myocardium: significantly reduced; also recorded: inhibition of early time-course expression of myocardial osteopontin
[2]; 7 days of treatment
  ICAM, Mean: 0.83 AU
[2]; 14 days of treatment
  ICAM, Mean: 1.19 AU
[2]; 30 days of treatment
  ICAM, Mean: 1.22 AU
[2]; [4]
  ICAM: 0.91 AU and 0.89 AU (2×) and 0.40 AU and 0.58 AU and 1.00 AU
[2]; [5]
  ICAM: 1.20 AU and 0.95 AU and 1.26 AU and 1.56 AU and 0.98 AU (2×) and 0.79 AU and 0.83 AU
[2]; [6]
  ICAM: 1.21 AU and 1.26 AU and 0.60 AU and 0.99 AU
[2]
  ICAM-1 mRNA expression in myocardium: significantly reduced; also recorded: inhibition of early time-course expression of myocardial ICAM-1 and VCAM-1

Reference: patent US20030162759A1, “Aldosterone blocker therapy to prevent or treat inflammation-related disorders” (priority 2000, published 2003)
